Experimental data reported in the NIST ThermoML archive (doi:10.1021/je060271a).
± gives the expanded uncertainty stated by the source.

Settings: 283.15 K, Liquid, Vibrating tube method

CCCCC(=O)OCC(COC(=O)CCCC)(COC(=O)CCCC)COC(=O)CCCC [pentaerythritol tetrapentanoate]
mass density (17085 kPa): 1036.8 ± 1.2 kg/m3
mass density (17119 kPa): 1037 ± 1.2 kg/m3
mass density (17147 kPa): 1036.9 ± 1.2 kg/m3
mass density (17175 kPa): 1036.9 ± 1.2 kg/m3
mass density (17208 kPa): 1036.9 ± 1.2 kg/m3
mass density (17236 kPa): 1036.9 ± 1.2 kg/m3
mass density (17270 kPa): 1036.9 ± 1.2 kg/m3
mass density (17299 kPa): 1037 ± 1.2 kg/m3
mass density (17327 kPa): 1037 ± 1.2 kg/m3
mass density (17355 kPa): 1037.1 ± 1.2 kg/m3
mass density (17390 kPa): 1037 ± 1.2 kg/m3
mass density (17419 kPa): 1037.1 ± 1.2 kg/m3
mass density (17449 kPa): 1037.2 ± 1.2 kg/m3
mass density (17478 kPa): 1037 ± 1.2 kg/m3
mass density (17514 kPa): 1037 ± 1.2 kg/m3
mass density (17542 kPa): 1037.2 ± 1.2 kg/m3
mass density (17572 kPa): 1037.1 ± 1.2 kg/m3
mass density (17607 kPa): 1037.1 ± 1.2 kg/m3
mass density (17637 kPa): 1037.4 ± 1.2 kg/m3
mass density (17666 kPa): 1037.2 ± 1.2 kg/m3
mass density (17702 kPa): 1037.3 ± 1.2 kg/m3
mass density (17732 kPa): 1037.2 ± 1.2 kg/m3
mass density (17762 kPa): 1037.3 ± 1.2 kg/m3
mass density (17798 kPa): 1037.3 ± 1.2 kg/m3
mass density (17829 kPa): 1037.1 ± 1.2 kg/m3
mass density (17860 kPa): 1037.4 ± 1.2 kg/m3
mass density (17890 kPa): 1037.4 ± 1.2 kg/m3
mass density (17927 kPa): 1037.2 ± 1.2 kg/m3
mass density (17958 kPa): 1037.4 ± 1.2 kg/m3
mass density (17995 kPa): 1037.4 ± 1.2 kg/m3
mass density (18026 kPa): 1037.4 ± 1.2 kg/m3
mass density (18058 kPa): 1037.4 ± 1.2 kg/m3
mass density (18097 kPa): 1037.4 ± 1.2 kg/m3
mass density (18130 kPa): 1037.4 ± 1.2 kg/m3
mass density (18164 kPa): 1037.4 ± 1.2 kg/m3
mass density (18197 kPa): 1037.5 ± 1.2 kg/m3
mass density (18237 kPa): 1037.5 ± 1.2 kg/m3
mass density (18262 kPa): 1037.5 ± 1.2 kg/m3
mass density (18283 kPa): 1037.6 ± 1.2 kg/m3
mass density (18309 kPa): 1037.6 ± 1.2 kg/m3
mass density (18330 kPa): 1037.6 ± 1.2 kg/m3
mass density (18356 kPa): 1037.5 ± 1.2 kg/m3
mass density (18377 kPa): 1037.6 ± 1.2 kg/m3
mass density (18399 kPa): 1037.6 ± 1.2 kg/m3
mass density (18421 kPa): 1037.6 ± 1.2 kg/m3
mass density (18446 kPa): 1037.8 ± 1.2 kg/m3
mass density (18468 kPa): 1037.6 ± 1.2 kg/m3
mass density (18490 kPa): 1037.7 ± 1.2 kg/m3
mass density (18517 kPa): 1037.7 ± 1.2 kg/m3
mass density (18539 kPa): 1037.6 ± 1.2 kg/m3
mass density (18561 kPa): 1037.7 ± 1.2 kg/m3
mass density (18588 kPa): 1037.6 ± 1.2 kg/m3
mass density (18610 kPa): 1037.8 ± 1.2 kg/m3
mass density (18631 kPa): 1037.7 ± 1.2 kg/m3
mass density (18657 kPa): 1037.6 ± 1.2 kg/m3
mass density (18680 kPa): 1037.8 ± 1.2 kg/m3
mass density (18702 kPa): 1037.9 ± 1.2 kg/m3
mass density (18728 kPa): 1037.6 ± 1.2 kg/m3
mass density (18750 kPa): 1037.7 ± 1.2 kg/m3
mass density (18778 kPa): 1037.8 ± 1.2 kg/m3
mass density (18800 kPa): 1037.8 ± 1.2 kg/m3
mass density (18823 kPa): 1037.9 ± 1.2 kg/m3
mass density (18845 kPa): 1037.8 ± 1.3 kg/m3
mass density (18874 kPa): 1037.8 ± 1.2 kg/m3
mass density (18896 kPa): 1037.8 ± 1.2 kg/m3
mass density (18919 kPa): 1037.9 ± 1.2 kg/m3
mass density (18947 kPa): 1037.9 ± 1.2 kg/m3
mass density (18970 kPa): 1037.8 ± 1.2 kg/m3
mass density (18993 kPa): 1037.9 ± 1.2 kg/m3
mass density (19021 kPa): 1038 ± 1.2 kg/m3
mass density (19044 kPa): 1037.9 ± 1.3 kg/m3
mass density (19067 kPa): 1037.8 ± 1.2 kg/m3
mass density (19094 kPa): 1037.9 ± 1.2 kg/m3
mass density (19118 kPa): 1038 ± 1.2 kg/m3
mass density (19142 kPa): 1038.1 ± 1.2 kg/m3
mass density (19166 kPa): 1038 ± 1.3 kg/m3
mass density (19191 kPa): 1038 ± 1.3 kg/m3
mass density (19219 kPa): 1038 ± 1.2 kg/m3
mass density (19243 kPa): 1038 ± 1.4 kg/m3
mass density (19266 kPa): 1038 ± 1.3 kg/m3
mass density (19295 kPa): 1038.2 ± 1.3 kg/m3
mass density (19319 kPa): 1038 ± 1.3 kg/m3
mass density (19343 kPa): 1038 ± 1.2 kg/m3
mass density (19372 kPa): 1038.2 ± 1.3 kg/m3
mass density (19397 kPa): 1038.1 ± 1.3 kg/m3
mass density (19420 kPa): 1038.2 ± 1.3 kg/m3
mass density (19450 kPa): 1038.1 ± 1.3 kg/m3
mass density (19475 kPa): 1038.1 ± 1.3 kg/m3
mass density (19501 kPa): 1038.1 ± 1.3 kg/m3
mass density (19525 kPa): 1038.2 ± 1.3 kg/m3
mass density (19550 kPa): 1038.2 ± 1.3 kg/m3
mass density (19579 kPa): 1038.2 ± 1.3 kg/m3
mass density (19603 kPa): 1038.3 ± 1.3 kg/m3
mass density (19633 kPa): 1038.3 ± 1.3 kg/m3
mass density (19658 kPa): 1038.2 ± 1.3 kg/m3
mass density (19682 kPa): 1038.1 ± 1.3 kg/m3
mass density (19707 kPa): 1038.3 ± 1.3 kg/m3
mass density (19738 kPa): 1038.4 ± 1.3 kg/m3
mass density (19763 kPa): 1038.4 ± 1.3 kg/m3
mass density (19788 kPa): 1038.3 ± 1.3 kg/m3
mass density (19818 kPa): 1038.4 ± 1.3 kg/m3
mass density (19844 kPa): 1038.3 ± 1.3 kg/m3
mass density (19874 kPa): 1038.4 ± 1.3 kg/m3
mass density (19900 kPa): 1038.3 ± 1.3 kg/m3
mass density (19925 kPa): 1038.5 ± 1.3 kg/m3
mass density (19951 kPa): 1038.5 ± 1.3 kg/m3
mass density (19982 kPa): 1038.5 ± 1.3 kg/m3
mass density (20007 kPa): 1038.5 ± 1.3 kg/m3
mass density (20033 kPa): 1038.5 ± 1.3 kg/m3
mass density (20064 kPa): 1038.4 ± 1.3 kg/m3
mass density (20090 kPa): 1038.5 ± 1.3 kg/m3
mass density (20121 kPa): 1038.5 ± 1.3 kg/m3
mass density (20147 kPa): 1038.5 ± 1.3 kg/m3
mass density (20174 kPa): 1038.5 ± 1.3 kg/m3
mass density (20200 kPa): 1038.6 ± 1.3 kg/m3
mass density (20232 kPa): 1038.5 ± 1.3 kg/m3
mass density (20259 kPa): 1038.7 ± 1.3 kg/m3
mass density (20286 kPa): 1038.5 ± 1.3 kg/m3
mass density (20318 kPa): 1038.6 ± 1.3 kg/m3
mass density (20344 kPa): 1038.6 ± 1.3 kg/m3
mass density (20376 kPa): 1038.6 ± 1.3 kg/m3
mass density (20403 kPa): 1038.6 ± 1.3 kg/m3
mass density (20430 kPa): 1038.8 ± 1.3 kg/m3
mass density (20462 kPa): 1038.6 ± 1.3 kg/m3
mass density (20490 kPa): 1038.7 ± 1.3 kg/m3
mass density (20517 kPa): 1038.7 ± 1.3 kg/m3
mass density (20550 kPa): 1038.8 ± 1.3 kg/m3
mass density (20578 kPa): 1038.8 ± 1.3 kg/m3
mass density (20607 kPa): 1038.8 ± 1.3 kg/m3
mass density (20634 kPa): 1038.9 ± 1.3 kg/m3
mass density (20667 kPa): 1038.8 ± 1.3 kg/m3
mass density (20695 kPa): 1038.8 ± 1.3 kg/m3
mass density (20723 kPa): 1038.8 ± 1.3 kg/m3
mass density (20756 kPa): 1038.9 ± 1.3 kg/m3
mass density (20784 kPa): 1038.9 ± 1.3 kg/m3
mass density (20812 kPa): 1038.9 ± 1.3 kg/m3
mass density (20846 kPa): 1038.9 ± 1.3 kg/m3
mass density (20875 kPa): 1039 ± 1.3 kg/m3
mass density (20904 kPa): 1038.9 ± 1.3 kg/m3
mass density (20938 kPa): 1038.9 ± 1.3 kg/m3
mass density (20966 kPa): 1038.9 ± 1.3 kg/m3
mass density (20995 kPa): 1039 ± 1.3 kg/m3
mass density (21029 kPa): 1039 ± 1.3 kg/m3
mass density (21058 kPa): 1039.1 ± 1.3 kg/m3
mass density (21086 kPa): 1039.2 ± 1.3 kg/m3
mass density (21116 kPa): 1039 ± 1.3 kg/m3
mass density (21151 kPa): 1039 ± 1.3 kg/m3
mass density (21180 kPa): 1039.1 ± 1.3 kg/m3
mass density (21215 kPa): 1039.1 ± 1.3 kg/m3
mass density (21244 kPa): 1039.2 ± 1.3 kg/m3
mass density (21274 kPa): 1039.1 ± 1.3 kg/m3
mass density (21303 kPa): 1039.1 ± 1.3 kg/m3
mass density (21340 kPa): 1039.1 ± 1.3 kg/m3
mass density (21369 kPa): 1039.2 ± 1.3 kg/m3
mass density (21399 kPa): 1039.1 ± 1.3 kg/m3
mass density (21435 kPa): 1039.2 ± 1.3 kg/m3
mass density (21464 kPa): 1039.2 ± 1.3 kg/m3
mass density (21495 kPa): 1039.3 ± 1.3 kg/m3
mass density (21531 kPa): 1039.4 ± 1.3 kg/m3
mass density (21561 kPa): 1039.3 ± 1.3 kg/m3
